Measurements: US20110262996A1, “METHODS AND MATERIALS FOR DEGRADING PYRETHROID” (DANISCO A/S, priority 2008, published 2011)

Biological target: T1, organophosphate hydrolase (OPH) (Brevundimonas diminuta, UniProt P0A434)
T1 construct: purchased Genencor DEFENZ 130G, lot 102-6181-001
Assay: Time course of permethrin degradation by OPH, permethrin quantified by GCMS
Type: biochemical
Details: for Amount of Permethrin measured: 5 μL of 0.31 mg/mL OPH added to 995 μL of 2.5 mg/mL permethrin, pH 8.5, 22° C., ppm at the detector
Method: OPH was assayed for the ability to degrade permethrin. Its efficacy has been measured by performing time course experiments wherein a sample of OPH is added to a sample of permethrin. Degraded permethrin is then separated from the reaction mixture and detected on a GCMS.
Experimental Methods and Equipment. A Shimadzu GC2010 Gas Chromatograph with AOC 20i Auto Injector and a Shimadzu GCMS QP2010S Quadrapole Mass Spectrometer were used to analyze the experimental samples. A Supelco Equity-5 column was used (length: 30.0 m, thickness: 0.25 μm, diameter: 0.25 mm) for the assays. However, analogous columns may be substituted.
The equipment was run with the following parameters: • column oven temperature: 120° C. • injector temperature: 250° C. • injection: splitless • pre-run rinses: 3 • post-run rinses: 3 • sample rinses: 2 • linear velocity: 30 cm/sec • column flow: 0.64 mL/min • split ratio: 10 • detector voltage: relative to tuning • ion source temperature: 250° C. • interface temperature: 270° C. • solvent cut time: 3 min • run time: 35 min • temperature ramp: 5° C./min • scan speed: 833
Experimental assays were run using recombinant OPH (DEFENZ™ 130G, lot 102-6181-001; Genencor). Reagents included ammonium carbonate (Sigma 207861, lot 12919JC), cobalt chloride (JT Baker 1670-04, lot Y41640), hydrochloric acid (JT Baker 5620-02, lot A23506), propanol (Sigma 154970, lot 04242AD), and permethrin (Sigma-Pestanal 45614, lot 7079×).
Preparation of Enzyme Samples. OPH enzyme granules (2% protein) were dissolved in 33 mM ammonium carbonate buffer, pH 8.5, at 22° C. The reaction mixture was agitated for 30 minutes, first vortexed, then slowly agitated on a temperature-controlled platform shaker. A 1.5 mL sample of the enzyme solution was taken and centrifuged for 1 minute at 13,000 rpm. An aliquot of the resulting supernatant is used in the pesticide degradation reaction.
Preparation of Permethrin Samples. A stock permethrin sample at a concentration of 100 mg/mL was made by dissolving an appropriate amount of permethrin standard into propanol. The stock sample was stored under refrigeration. For generating standard curves on the GCMS, permethrin standards were made by diluting an aliquot of the stock permethrin sample into propanol to achieve a concentration of 1 mg/mL and 10 mg/mL. Permethrin to be used in the enzyme reaction was prepared by diluting an aliquot of the stock solution into 33 mM ammonium carbonate buffer at the desired pH for a particular reaction, and at room temperature.
Enzyme Reactions. In a 1.5 mL tube, 250 μL of a 10 mg/mL permethrin solution in propanol was added to 0.75 mL of 33 mM ammonium carbonate buffer, pH 8.5. A 995 μL aliquot of the permethrin solution was placed in a 1.5 mL gas chromatography (GC) sample vial, to which was added a 5 μL aliquot of a 0.31 mg/mL OPH enzyme solution. To inactivate the reaction at any specific time point, a 10 μL aliquot of the reaction solution was removed and added to 990 μL of propanol in a GC sample vial. These samples were then loaded on the GCMS autosampler.
Results and Discussion. This study was conducted to determine whether OPH degrades permethrin. To quantitatively measure amounts of permethrin, the Shimadzu GC with Quadrapole MS detector was used, as in previous pesticide experiments. A standard curve was generated using 1 mg/mL and 10 mg/mL stock solutions in propanol. Regression of the standard curve yielded R2 values of 0.9997 above 50 ppm and of 0.998 below 50 ppm.
Preliminary experiments were conducted to ascertain optimum concentrations for the enzyme reactions. […] Samples were taken at time points of 0, 1, 5, 15, and 30 minutes by removing 10 μL of the reaction mixture and adding it to 990 μL of propanol. […]

SMILES: CC1(C)C(C=C(Cl)Cl)C1C(=O)OCc1cccc(Oc2ccccc2)c1 (stereo not shown) [permethrin]
- degraded amount of permethrin at the detector (after 30 minutes): 12 ppm
- Amount of Permethrin measured (time 0 min): 31.47 ppm
- Amount of Permethrin measured (time 1 min): 25.8 ppm
- Amount of Permethrin measured (time 5 min): 25.88 ppm
- Amount of Permethrin measured (time 15 min): 24.64 ppm
- Amount of Permethrin measured (time 30 min): 19.27 ppm
- initial, rapid degradation of permethrin at the detector (within 1 minute of the start of the reaction): approximately 6 ppm
